{"source": "patent US20230137092A1", "about": "“Composition and Method for the Treatment and Prevention of Cardiac, Pulmonary, Dermal, and Renal Fibrosis” (EMERALD HEALTH PHARMACEUTICALS INC., priority 2020, published 2023)", "key": {"[1]": {"system": "inflammatory and fibrotic marker mRNAs in heart", "assay": "Real-time quantitative PCR of inflammatory and fibrotic markers in heart, Ang II preventive model", "type": "in vivo, mouse", "settings": "Ang II infused mice; 2-ΔΔCt method"}, "[2]": {"system": "cardiac myofibroblast proliferation", "assay": "Ki67 immunostaining of left ventricle sections (myofibroblast proliferation), Ang II preventive model", "type": "in vivo, mouse", "settings": "two weeks after Ang II infusion; ###p<0.001 versus Ang II group", "procedure": "Proliferation of fibroblast is an important event of Ang II-induced fibrosis and plays an important role in cardiac fibrosis. […] Ki 67 is a protein that is encoded by the MKI67 gene and is a cellular marker for proliferation. Cardiac tissue sections ([…]) were deparaffinized and boiled for 10 minutes in sodium citrate buffer (10 mM, pH 6.0) (Sigma-Aldrich, Madrid, Spain) for antigen retrieval. The sections were then incubated in a PBS washing buffer containing 0.1% Triton X-100 (Sigma-Aldrich, Madrid, Spain) three times for 10 minutes. Nonspecific binding was blocked with 3% bovine serum albumin (BSA) (Sigma-Aldrich, Madrid, Spain). The sections were incubated overnight at 4° C. with Ki 67 antibody (1:100 dilution, ab15580, Abcam, Cambridge, UK). After three washes for 10 minutes each in wash buffer, slides were incubated with secondary antibody anti-rabbit Texas Red (1:100 dilution, #A-6399, Thermo Fischer Scientific, Waltham, Mass., USA) for 1 hour at room temperature in the dark. […] All images were acquired using a spectral confocal laser-scanning microscope LSM710, (Zeiss, Jena, Germany) with a 63× Plan-Apochromat oil immersion lens and quantified in 10-15 randomly chosen fields using ImageJ software (rsb.info.nih.gov/ij/)."}, "hICF cells": {"system": "hICF cells", "assay": "Real-time PCR of IL1b, IL6, Col1A2 and CCL2 mRNA in hICF", "type": "cell-based, human", "settings": "induced by Ang II or TGFb in hICF cells", "procedure": "hICF (5×10^4 cells/cm^2) were preincubated with Compound of Formula (VIII), stimulated with Ang II for either 2 hours or 24 hours and total RNA was extracted using High Pure Isolation Kit (Roche Diagnostic, Switzerland). Total RNA (1 μg) was retrotranscribed using the iScript™ cDNA Synthesis Kit (Bio-Rad) and the cDNA analyzed using a CFX96 Real-Time PCR Detection System (Bio-Rad) by real-time PCR using the iQ™ SYBR Green Supermix (Bio-Rad). Human HPRT was used for in vitro studies to standardize the mRNA expression levels in each sample. Expression levels were calculated using the 2-ΔΔCt method. Compound of Formula (VIII) inhibited the mRNA expression of IL1b, IL6, Col1A2 and CCL2, induced by Ang II or TGFb in hICF cells (FIG. 17)."}}}
{"compound": "C=C(C)C1CCC(C)=C[C@H]1C1=C(O)C(=O)C(CCCCC)=C(NCc2ccccc2)C1=O", "note": "(some centres unmarked) [Formula (VIII)]", "values": [{"measurement": "IL1β expression level in left ventricle", "setting": "[1]", "result": "significantly reduced"}, {"measurement": "IL6 expression level in left ventricle", "setting": "[1]", "result": "significantly reduced"}, {"measurement": "TNC expression level in left ventricle", "setting": "[1]", "result": "significantly reduced"}, {"measurement": "myofibroblast proliferation in left ventricle (Ki67-positive cells)", "setting": "[2]", "result": "reduced"}, {"measurement": "CCL2 mRNA expression", "setting": "hICF cells", "result": "inhibited"}, {"measurement": "Col1A2 mRNA expression", "setting": "hICF cells", "result": "inhibited"}, {"measurement": "IL1b mRNA expression", "setting": "hICF cells", "result": "inhibited"}, {"measurement": "IL6 mRNA expression", "setting": "hICF cells", "result": "inhibited"}]}
